The record followed here is US20200157092A1, “[1,2,4]-TRIAZOLO [1,5-A]-PYRIMIDINYL DERIVATIVES SUBSTITUTED WITH PIPERIDINE, […] […] OGA INHIBITORS” (priority 2017, published 2020).

Structures are written as SMILES. Read-outs that look alike come from different tables or passages of the source. A value given as a limit tells only on which side of the number the result lay.

Data set [1] deals with T1, recombinant human Meningioma Expressed Antigen 5 (MGEA5), also referred to as O-GlcNAcase (OGA) (Homo sapiens, UniProt O60502).
T1 construct: Full length OGA enzyme was purchased at OriGene (cat # TP322411); purchased OriGene TP322411
T1 sequence (O60502 1-916): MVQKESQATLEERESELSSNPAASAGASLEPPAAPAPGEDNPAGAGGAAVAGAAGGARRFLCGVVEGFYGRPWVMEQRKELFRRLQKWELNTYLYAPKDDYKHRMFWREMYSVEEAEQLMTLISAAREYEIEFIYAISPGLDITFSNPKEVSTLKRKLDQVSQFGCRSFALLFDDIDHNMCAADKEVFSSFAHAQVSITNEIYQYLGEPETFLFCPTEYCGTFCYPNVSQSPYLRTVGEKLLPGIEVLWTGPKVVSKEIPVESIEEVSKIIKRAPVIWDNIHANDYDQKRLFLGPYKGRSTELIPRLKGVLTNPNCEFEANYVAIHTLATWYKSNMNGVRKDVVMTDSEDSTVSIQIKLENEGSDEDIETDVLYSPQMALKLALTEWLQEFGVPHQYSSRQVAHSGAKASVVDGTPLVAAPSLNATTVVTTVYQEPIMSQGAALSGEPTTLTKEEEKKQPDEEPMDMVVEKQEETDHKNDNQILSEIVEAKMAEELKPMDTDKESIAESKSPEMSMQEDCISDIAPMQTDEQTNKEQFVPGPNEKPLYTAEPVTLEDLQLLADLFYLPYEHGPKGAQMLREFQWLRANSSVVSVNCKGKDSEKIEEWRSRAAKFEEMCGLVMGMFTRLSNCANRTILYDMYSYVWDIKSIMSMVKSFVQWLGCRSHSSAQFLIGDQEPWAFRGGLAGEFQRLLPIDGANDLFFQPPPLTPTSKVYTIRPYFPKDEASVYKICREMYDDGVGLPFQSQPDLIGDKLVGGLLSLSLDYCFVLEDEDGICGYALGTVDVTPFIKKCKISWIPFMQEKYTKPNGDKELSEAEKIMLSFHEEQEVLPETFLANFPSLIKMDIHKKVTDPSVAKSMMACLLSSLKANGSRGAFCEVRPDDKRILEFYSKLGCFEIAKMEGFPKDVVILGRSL
The data set can be described thus: OGA biochemical assay: inhibition of FM-GlcNAc hydrolysis, fluorescence; protocol A (10 nM OGA, 1 h) or protocol B (2 nM OGA, 6 h). The note with it: for IC50: read-out: Enzymatic hOGA, pIC50 (converted). On the procedure:
The hydrolysis FM-GlcNAc (Marker Gene technologies, cat # M1485) results in the formation of ß-D-N-glucosamineacetate and fluorescein. The fluorescence of the latter can be measured at excitation wavelength 485 nm and emission wavelength 538 nm. An increase in enzyme activity results in an increase in fluorescence signal. Full length OGA enzyme was purchased at OriGene (cat # TP322411). The enzyme was stored in 25 mM Tris.HCl, pH 7.3, 100 mM glycine, 10% glycerol at −20° C. […] The assay was performed in 200 mM Citrate/phosphate buffer supplemented with 0.005% Tween-20. 35.6 g Na2HPO4 2 H2O (Sigma, # C0759) were dissolved in 1 L water to obtain a 200 mM solution. […] The buffer to stop the reaction consists of a 500 mM Carbonate buffer, pH 11.0. […] OGA was used at a 10 nM (protocol A) or 2 nM (protocol B) concentration and FM-GlcNAc at a 100 uM final concentration. Dilutions were prepared in assay buffer.
Plates were pre-incubated for 60 min at room temperature and then 2 μl FM-GlcNAc substrate mix added. […] Plates were briefly centrifuged for 1 min at 1000 rpm and incubate at room temperature for 1 h (10 nM OGA, protocol A) or 6 h (2 nM OGA, protocol B). To stop the reaction 5 μl STOP buffer were added and plates centrifuge again 1 min at 1000 rpm. Fluorescence was quantified in the Thermo Scientific Fluoroskan Ascent or the PerkinElmer EnVision with excitation wavelength 485 nm and emission wavelength 538 nm.
For analysis a best-fit curve is fitted by a minimum sum of squares method. From this an IC50 value and Hill coefficient was obtained. High control (no inhibitor) and low control (saturating concentrations of standard inhibitor) were used to define the minimum and maximum values.

For a further data set, the target named is T2, OGA (Homo sapiens, UniProt O60502).
T2 construct: HEK293 cells inducible for P301L mutant human Tau (isoform 2N4R) were established at Janssen; endogenous in cells; host or cells: HEK293 cells inducible for P301L mutant human Tau (2N4R)
T2 sequence (O60502 1-916): T1 sequence (O60502 1-916)
As to the kind of experiment: OGA cellular assay: immunocytochemical detection of O-GlcNAcylated proteins in HEK293 cells inducible for P301L mutant human Tau. It is filed as cell-based. To be noted: for Emax: HEK293, read-out: Cellular Emax (%). The source says:
HEK293 cells inducible for P301L mutant human Tau (isoform 2N4R) were established at Janssen. Thiamet-G was used for both plate validation (high control) and as reference compound (reference EC50 assay validation). […] Inhibition of OGA will result in an increase of O-GlcNAcylated protein levels resulting in an increased signal in the experiment. […] ICC pictures are imaged with a Perkin Elmer Opera Phenix plate microscope and quantified with the provided software Perkin Elmer Harmony 4.1.
Cells were propagated in DMEM high Glucose (Sigma, # D5796) following standard procedures. […] At the day of compound test medium from assay plates was removed and replenished with 90 μl of fresh Assay Medium. 10 μl of compounds at a 10 fold final concentration were added to the wells. Plates were centrifuged shortly before incubation in the cell incubator for 6 hours. DMSO concentration was set to 0.2%. Medium is discarded by applying vacuum. For staining of cells medium was removed and cells washed once with 100 μl D-PBS (Sigma, # D8537). From next step onwards unless other stated assay volume was always 50 μl and incubation was performed without agitation and at room temperature. […] Before analysis samples were washed 2 times manually for 5 minutes in ICC base buffer.
Imaging is performed using Perkin Elmer Phenix Opera using a water 20× objective and recording 9 fields per well. Intensity readout at 488 nm is used as a measure of O-GlcNAcylation level of total proteins in wells. To assess potential toxicity of compounds nuclei were counted using the Hoechst staining. IC50-values are calculated using parametric non-linear regression model fitting. As a maximum inhibition Thiamet G at a 200 uM concentration is present on each plate. In addition, a concentration response of Thiamet G is calculated on each plate.

The mark [2] stands for this setting: Enzymatic protocol A (10 nM OGA, 1 h).
Where [3] appears, read: Enzymatic protocol B (2 nM OGA, 6 h).

As usually defined, the Emax is the maximal effect, on the per cent scale that the assay sets. As usually defined, the EC50 is the concentration at which the effect is half-maximal. A higher EC50 goes with a less potent agent. What is called melting point is the temperature, or range, at which the solid turns liquid. `CC(=O)Nc1ncc(S(=O)(=O)N2CCCC(c3cc(C(F)F)nc4ncnn34)C2)s1` (racemic) [Product 6] returned a melting point of 266.14 °C. In data set [1] (setting [2]), the Emax stood at 101% and the IC50 was 0.00933 µM. Also, on OGA, the half-maximal effective concentration (EC50) is more than 10 µM and the Emax is 39.4%.
`CC(=O)Nc1ncc(CN2CCCC(c3cc(C)nc4ncnn34)C2)s1` (racemic) [Product 11] registered a melting point of 246.95 °C. In data set [1] (setting [3]), the Emax turned out to be 100% and the IC50 was 0.00617 µM. Further, on OGA, the EC50 was 0.0275 µM and the Emax turned out to be 113%.
On to `CC(=O)Nc1ncc(CN2CCCC(c3cc(C(F)F)nc4ncnn34)C2)s1` (racemic) [Product 13], for which the melting point was found to be 186.01 °C. Further, in data set [1] (setting [2]), the Emax was 101% and the IC50 is 0.00851 µM. In addition, at OGA, it took 0.0355 µM to reach a half-maximal effect (EC50) and the Emax was 130%.
The compound `CC(=O)Nc1ncc(S(=O)(=O)N2CCCC(c3cc(C(F)F)n4ccnc4n3)C2)s1` (racemic) [Product 23] gave a melting point of 280.13 °C. In data set [1] (setting [2]), the Emax was 102% and the IC50 is 0.295 µM.
The compound `CC(=O)Nc1ncc(S(=O)(=O)N2CC[C@H](C)[C@@H](c3cc(C(F)F)nc4ncnn34)C2)s1` [Product 7] yielded a melting point of 264.57 °C. Besides, in data set [1] (setting [2]), the Emax stood at 82.2% and the IC50 is 2.75 µM.
In turn, `CC(=O)Nc1ncc(CN2CCC(c3cc(C(F)(F)F)nc4ncnn34)C2)s1` (centres unmarked) [Product 20] showed a melting point of 214.29 °C. For the same compound, in data set [1] (setting [3]), the Emax was found to be 93.7% and the IC50 was 0.603 µM.
For `CC(=O)Nc1ncc(S(=O)(=O)N2CCC[C@@H](c3cc(C(F)F)n4ncnc4n3)C2)s1` [Product 22], the melting point worked out at 263.43 °C. Moreover, in data set [1] (setting [2]), the Emax stood at 99.1% and the IC50 is 0.617 µM.
The like results for `CC(=O)Nc1ncc(CN2CCOC(c3cc(C(F)F)nc4ncnn34)C2)s1` (centres unmarked) [Product 34] were, in that order, 260.21 °C, 97.4% and 1.58 µM.
`CC(=O)Nc1ncc(CN2CCOC(c3cc(C)nc4ncnn34)C2)s1` (centres unmarked) [Product 35]: the melting point came to 264.26 °C. Further, in data set [1] (setting [2]), the Emax came out at 98.3% and the IC50 was 1.58 µM. Also, in data set [1] (setting [3]), the Emax was determined as 86.7% and the IC50 was 1.48 µM.
Compound `CC(=O)Nc1ncc(CN2CCOC(c3ccnc4ncnn34)C2)s1` (centres unmarked) [Product 36] returned a melting point of 251.21 °C. In data set [1] (setting [3]), the Emax turned out to be 93.6% and the IC50 was 0.741 µM.
Taken in the same sequence, the figures for `CC(=O)Nc1ncc(CN2CCOC(c3cc(C(F)(F)F)nc4ncnn34)C2)s1` (centres unmarked) [Product 37] were 242.64 °C, 79.6% and 2.69 µM.
With `CC(=O)Nc1ncc(S(=O)(=O)N2CCOC(c3cc(C(F)F)n4ncnc4n3)C2)s1` (centres unmarked) [Product 38], the melting point was determined as 229.94 °C. In data set [1] (setting [2]), the Emax is 101% and the IC50 is 0.468 µM.
`CC(=O)Nc1ncc(CN2CCOC(c3cc(C(F)F)n4ncnc4n3)C2)s1` (centres unmarked) [Product 39] gave a melting point of 209.69 °C. For the same compound, in data set [1] (setting [2]), the Emax was determined as 88.4% and the IC50 is 3.47 µM.
Taken in the same sequence, the figures for `CC(=O)Nc1ncc(S(=O)(=O)N2CCNC(c3cc(C)nc4ncnn34)C2)s1` (centres unmarked) [Product 40] were 226.91 °C, 100% and 0.0166 µM.
For the compound `CC(=O)Nc1ncc(CN2CCNC(c3cc(C)nc4ncnn34)C2)s1` (centres unmarked) [Product 42], the melting point amounted to 228.95 °C. For the same compound, in data set [1] (setting [3]), the Emax came to 93.6% and the IC50 is 0.437 µM.
Consider `CC(=O)Nc1ncc(S(=O)(=O)N2CCNC(c3cc(C(F)F)n4ncnc4n3)C2)s1` (centres unmarked) [Product 43], for which the melting point was found to be 226.22 °C. For the same compound, in data set [1] (setting [2]), the Emax came to 93.1% and the IC50 was 1.86 µM.
In the case of `CC(=O)Nc1ncc(CN2CCCC(Nc3cc(C)nc4ncnn34)C2)s1` (centres unmarked) [Product 51], the melting point stood at 249.94 °C. Further, in data set [1] (setting [3]), the Emax was 98.5% and the IC50 is 0.115 µM.
The like results for `Cc1cc([C@H]2CN([C@H](C)c3ccc4c(c3)OCO4)CCN2)n2ncnc2n1` [Product 56] were, in that order, 199.25 °C, 25.8% and more than 10 µM.
The like results for `Cc1cc([C@H]2CN([C@@H](C)c3ccc4c(c3)OCO4)CCN2)n2ncnc2n1` [Product 57] were, in that order, 161.31 °C, 93% and 0.617 µM.
The like results for `Cc1cc(C2CN(CC(=O)N3CCCC3)CCO2)n2ncnc2n1` (centres unmarked) [Product 59] were, in that order, 127.35 °C, -1.34% and more than 10 µM.
In turn, `CC(=O)Nc1ncc(S(=O)(=O)N2CCCC(C)(c3cc(C(F)F)nc4ncnn34)C2)s1` (centres unmarked) [Product 60] had a melting point of 238.12 °C. Further, in data set [1] (setting [2]), the Emax was 98.7% and the IC50 is 1.86 µM.
Consider `CC(=O)Nc1ncc(CN2CCCC(C)(c3cc(C(F)F)n4ncnc4n3)C2)s1` (centres unmarked) [Product 62], for which the melting point was 217.24 °C. In addition, in data set [1] (setting [3]), the Emax amounted to 16.2% and the IC50 was more than 10 µM.
The compound `CC(=O)Nc1ncc(S(=O)(=O)N2CCC3(CC3)C(c3cc(C(F)F)nc4ncnn34)C2)s1` (centres unmarked) [Product 63] had a melting point of 266.56 °C. Moreover, in data set [1] (setting [2]), the Emax came to 93.8% and the IC50 was 0.692 µM.
`CC(=O)Nc1ncc(CN2CCC[C@@H](c3ccnc4ncnn34)C2)s1` [Product 65]: the melting point was 236.16 °C. Besides, in data set [1] (setting [3]), the Emax was determined as 99.2% and the IC50 is 0.123 µM.
